Article PMC11437215 (Nature Communications, 2024)

Legend:
[1] = system: tetramer-binding CD4+ T cells; experiment: Flow cytometry of FOXP3 and CD44 in tetramer-binding CD4+ T cells; format: cell-based, NOD and NOD.Ins2−/− mice; conditions: NOD mice (Fig. 6b)
[2] = system: tetramer-binding CD4+ T cells; experiment: Flow cytometry of anergy markers CD73 and FR4 in tetramer-binding CD4+ T cells; format: cell-based, NOD and NOD.Ins2−/− mice; conditions: SLOs (Supplementary Fig. 9a)
[3] = system: crinosomes in pancreatic β cells; experiment: Electron microscopy count of crinophagic granules; format: in vivo, NOD mice
[4] = system: insulin epitopes G20 and E21 in crinosome and DCG subcellular fractions; experiment: Granule-based antigen presentation assay: crinosome; format: cell-based, NOD mice; conditions: chloroquine vs PBS
[5] = system: 9B9 T cell (G20-specific); experiment: Presentation of G20 by blood leukocytes after glucose challenge; format: cell-based, NOD mice
[6] = system: crinosome subcellular fraction of β cells; experiment: Crinosome peptidome by mass spectrometry; design: species or system NOD mice
[7] = system: autoimmune diabetes in female NOD mice; experiment: Diabetes development; conditions: chloroquine group, all PBS-treated mice became diabetic
[8] = system: 9B9 T cell (G20-specific); experiment: Presentation of G20 by dispersed islet cells; conditions: chloroquine vs PBS; B:9–23 10 µM
[9] = system: CD4+ T cell clones BDC2.5 and BDC6.9; conditions: cited from earlier work
[10] = system: 9B9 (G20-specific) and IIT-3 (E21-specific) CD4+ T cell hybridomas; format: cell-based, mouse; conditions: C3.g7 APC pulsed with antigen; IL-2 (Supplementary Fig. 1a, b)
[11] = system: 9B9, IIT-3, CP1- and CP2-specific CD4+ T cell hybridomas; format: cell-based, NOD and NOD.B16A mice; conditions: mTECs from NOD or NOD.B16A mice
[12] = system: 9B9, IIT-3, CP1- and CP2-specific CD4+ T cell hybridomas; format: cell-based, NOD and NOD.B16A mice; conditions: 8 to 10-week-old female NOD mice
[13] = system: popliteal lymph node T cells (IFNγ, IL-2); experiment: ELISPOT recall after peptide immunization; conditions: immunized with B:9–23 (Fig. 7c)
[14] = system: type 1 diabetes progression; conditions: autoantibody-positive (stage 1) T1D patients; cited from earlier work
[15] = system: CD4+ T cells in SLOs; experiment: Quantification of tetramer-binding CD4+ T cells in SLOs; format: cell-based; conditions: SLOs of 6–8-week-old female NOD mice
[16] = system: I-A^g7; conditions: Q-to-E conversion; cited from earlier work

Which “FOXP3 phenotype of tetramer-binding CD4+ single-positive thymocytes” value [1] does the source give for EALYLVCGE [E21] here?
The value was “majority”.

And the “expression of CD73 and FR4 in the FOXP3−CD44hi subset of tetramer-binding T cells” value (“expression of CD73 and FR4” below) [2]?
Its value is “high expression of both CD73 and FR4”.

Which results are given for VEALYLVCG [G20]?
FOXP3 phenotype of tetramer-binding CD4+ single-positive thymocytes [1]: mostly FOXP3^− conventional T cells; expression of CD73 and FR4 in the FOXP3−CD44hi subset of tetramer-binding T cells [2]: much less expression of CD73 and FR4

For CCN(CC)CCCC(C)Nc1ccnc2cc(Cl)ccc12 (centres unmarked) [Chloroquine, chloroquine], which “change of crinosome-like vesicles in β cells” value ([3]; male and female NOD mice, short-term chloroquine vs PBS) is on record?
The value was “reduced by half”.

What about the “diminishing of crinophagic granules and associated peptide production” value ([3]; young NOD mice (discussion summary)) of the same molecule?
The value was “about 50%”.

What about the “effect on presentation of both epitopes in DCGs” value [4] of the same molecule?
The value was “did not influence”.

What about the “reduction in the presentation level of both G20 and E21 in the crinosome fraction” value ([4]; male and female NOD mice) of the same molecule?
Its value is ~ 50%.

And the “presentation of G20 by blood leukocytes during pulse with exogenous B:9–23” value ([5]; chloroquine vs PBS, B:9–23 10 µM)?
Its value is “without affecting”.

What about the “duration of the effect in inhibiting G20 presentation” value ([5]; preliminary experiments) of the same molecule?
Its value is “about three days”.

And the “overall HIP abundance in crinosomes” value ([6]; chloroquine vs PBS)?
The value was “significant decrease”.

What about the “relative abundance of deamidated insulin C-peptides in the crinosome peptidome” value ([6]; chloroquine vs PBS) of the same molecule?
The value was “significant reduction”.

And the “number of peptides in the crinosome peptidome” value ([6]; chloroquine vs PBS, 1.2 × 10^6 β cells per condition)?
The value was “significant reduction”.

What about the “HIPs identified in crinosomes” value ([6]; mice given chloroquine, ten HIPs in PBS control) of the same molecule?
Its value is “only one HIP”.

What about the “PTMs in the crinosome peptidome (methionine oxidation, deamidation, dehydration, phosphorylation, formylation)” value ([6]; peptide-spectra matches, chloroquine vs PBS) of the same molecule?
Its value is “reduced”.

And the “mice remaining diabetes free by 35 weeks of age” value [7]?
The value was “about 33%”.

What about the “G20 presentation by dispersed islet cells pulsed with exogenous B:9–23 peptide” value [8] of the same molecule?
Its value is “no difference”.

For LQTLAL-WSRMD [2.5HIP], which “expression of CD73 and FR4” value [2] is on record?
Its value is “much less expression of CD73 and FR4”.

And the “agonist activity on CD4+ T cell clones BDC2.5 and BDC6.9” value [9]?
The value was “strong agonists”.

Which results are given for insulin?
responses of the 9B9 (G20-specific) and IIT-3 (E21-specific) hybridomas [10]: Only the IIT-3 but not the 9B9 T cell responded; presentation of E21 and G20 by mTECs pulsed with antigen [11]: strong presentation of E21, whereas presentation of G20 was minimal; presentation of E21 and G20 by dispersed islets pulsed with antigen [12]: only presentation of E21, but not G20, was enhanced; T cell responses upon recall in NOD.Ins2−/− mice [13]: significantly enhanced; T cell responses upon recall in WT NOD mice [13]: minimal

With CCN(CCO)CCCC(C)Nc1ccnc2cc(Cl)ccc12 (centres unmarked) [hydroxychloroquine] as the molecule, how does the “autoantibody acquisition and titers of anti-insulin and anti-GAD antibodies” value [14] read?
Its value is “reduced”.

What about the “progression to stage 2 T1D” value [14] of the same molecule?
The value was “did not delay”.

With LQTLAL-NAARD [6.9HIP] as the molecule, how does the “expression of CD73 and FR4” value [2] read?
The value was “much less expression of CD73 and FR4”.

What about the “agonist activity on CD4+ T cell clones BDC2.5 and BDC6.9” value [9] of the same molecule?
Its value is “strong agonists”.

With TEGVEALYLVCGGGS [Syn-G20] as the molecule, how does the “responses of the 9B9 (G20-specific) and IIT-3 (E21-specific) hybridomas” value [10] read?
The value was “exclusively reacted to their corresponding epitopes”.

Which “tetramer-binding cells per million CD4+ T cells” value [15] does the source give for ILSVHVATAASQDS [ZnT8] here?
Its value is “less than 5 per million CD4^+ T cells”.

With TEGEALYLVCGEGGS [Syn-E21] as the molecule, how does the “responses of the 9B9 (G20-specific) and IIT-3 (E21-specific) hybridomas” value [10] read?
Its value is “exclusively reacted to their corresponding epitopes”.

And the “T cell responses upon recall in NOD.Ins2−/− mice” value [13]?
Its value is “significantly enhanced”.

And the “T cell responses upon recall in WT NOD mice” value [13]?
The value was “minimal”.

With GDLQTLALEVARE [CP1d] as the molecule, how does the “binding affinity to I-A^g7 relative to native CP1” value [16] read?
The value was “enhanced the binding affinity”.

With TQSPLLKRQLTSFIEKGQE [DBP] as the molecule, how does the “tetramer-binding cells per million CD4+ T cells” value [15] read?
Its value is “less than 5 per million CD4^+ T cells”.
